In PubChem BioAssay AID1259321 (Sanford-Burnham Center for Chemical Genomics, 2017):
The source made the active and inactive calls.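 How the source made its calls: active means half-maximal concentration for changing protein binding to DNA, from the fitted dose curve, below 10 micromolar; inactive means the rest.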

Molecular target: Nuclear receptor subfamily 1 group D member 1 (Homo sapiens) (UniProt P20393)
Experiment: Rev-erbα–DNA interaction modulators – biochemical, FITC-DNA, fluorescence polarization, dose response (AID 1259321)
Details: Rev-erb alpha-FITC-DNA binding

Chain of Nuclear receptor subfamily 1 group D member 1 (Homo sapiens) (P20393 whole entry, looked up): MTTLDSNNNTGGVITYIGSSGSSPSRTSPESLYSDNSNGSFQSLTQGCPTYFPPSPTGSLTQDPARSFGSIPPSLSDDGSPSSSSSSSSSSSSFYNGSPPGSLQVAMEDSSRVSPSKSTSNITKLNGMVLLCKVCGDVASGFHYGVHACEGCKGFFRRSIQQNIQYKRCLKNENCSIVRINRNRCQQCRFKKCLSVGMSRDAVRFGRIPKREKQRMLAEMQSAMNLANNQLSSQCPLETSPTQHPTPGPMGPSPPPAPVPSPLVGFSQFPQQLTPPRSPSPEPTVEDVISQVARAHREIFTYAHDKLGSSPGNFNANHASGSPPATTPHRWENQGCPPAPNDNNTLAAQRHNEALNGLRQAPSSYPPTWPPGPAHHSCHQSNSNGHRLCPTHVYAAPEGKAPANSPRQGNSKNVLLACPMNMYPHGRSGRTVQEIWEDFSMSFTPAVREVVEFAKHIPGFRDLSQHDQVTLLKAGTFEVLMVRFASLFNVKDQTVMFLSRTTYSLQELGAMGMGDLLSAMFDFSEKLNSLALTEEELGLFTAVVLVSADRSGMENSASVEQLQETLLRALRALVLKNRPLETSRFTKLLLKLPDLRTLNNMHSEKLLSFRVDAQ

SMILES	IC50
O=C(CSc1ncnc2c1oc1ccccc12)NCc1ccc(F)cc1	1.26 µM
COc1ccc(-c2nc(N)ncc2Oc2ccccc2Br)c(O)c1	inactive
NS(=O)(=O)c1ccc(CNC(=O)c2cc(-c3cccnc3)nc3ccc(Br)cc23)cc1	0.496 µM
CCn1cc(/C=C/c2cc[n+](C)cc2)c2ccccc21	3.25 µM
COc1ccc(C(=O)c2c[nH]c(C(=O)NCc3cccs3)c2)cc1	> 40 µM (inactive)
COC(=O)c1ccccc1NC(=O)C1=CC(c2cccs2)=NS(=O)(=O)N1C	1.14 µM
COC(=O)c1cc(-c2cc3ccccc3s2)c(=O)n2c1CCC2	7.41 µM
CCCCNc1ccc2c3c(cccc13)C(=O)N(CCCC)C2=O	2.78 µM
Cc1nc2cc(NC(=O)CSc3nc4c(C)cccc4cc3C#N)ccc2s1	5.93 µM
COc1ccccc1NC(=O)c1sc(NC(=O)c2ccco2)c(C#N)c1C	3.15 µM
Nc1cccc(N2C(=O)c3cccc4c(N)ccc(c34)C2=O)c1	inactive
COc1ccc(Cl)cc1-c1cc(C(=O)Nc2ccc(F)cc2)[nH]n1	3.13 µM
CCN(CC)C(=O)Cn1c(C)c(/C=C/c2cc[n+](C)cc2)c2ccccc21	4.55 µM
CCOC(=O)c1c(NC(=O)COC(=O)CCOc2ccccc2C)sc(C(=O)NC)c1C	0.831 µM
COc1ccc(-c2cc(C(F)(F)F)c(C#N)c(SCC(=O)Nc3nc(C)co3)n2)cc1	3.59 µM
CC(=O)Nc1sc(C)c(C)c1C(=O)OCC(=O)N(Cc1ccccc1)C(C)C	inactive
COc1ccccc1N=Nc1nc(-c2ccccc2)c(-c2ccccc2)[nH]1	0.465 µM
COc1ccc2[nH]cc(/C=C/c3cc[n+](C)cc3)c2c1	5.25 µM
CN(C)c1ccc(C=Cc2nccc3ccccc23)cc1	> 40 µM (inactive)
CN(C)c1ccc(C=C2SC(=S)NC2=O)cc1	inactive
O=c1c2ccccc2nc2sc(Nc3cccc(Cl)c3)nn12	3.87 µM
COc1ccc2nc(SCC(=O)Nc3ccc4sc(C)nc4c3)c(C#N)cc2c1	1.98 µM
Cc1cc(OC(C)C(=O)NCc2ccccn2)c2c(C)c(Cc3ccccc3)c(=O)oc2c1 (centres undefined)	2.52 µM
COc1ccc(CC(=O)Nc2cc(C)c3c(=O)oc4ccccc4c3n2)cc1	4.42 µM
CC(=O)Nc1ccc(Nc2c3c4c(cccc4n(C)c2=O)C(=O)c2ccccc2-3)cc1	5.25 µM
COc1ccc(CCn2c(O)c(C=Nc3ccc(F)cc3)c(=O)[nH]c2=O)cc1OC	inactive

SMILES	IC50
O=c1sc(N2CCN(c3ccc(F)cc3)CC2)nc2ccsc12	inactive
COc1ccc2c(COC(=O)c3n[nH]c4ccccc34)cc(=O)oc2c1	> 40 µM (inactive)
COc1ccc(Sc2nc3ccccc3n3c(C(F)(F)F)nnc23)cc1	3.01 µM
CNC(=O)c1ccsc1NC(=O)c1sc2ccccc2c1Cl	inactive
Cc1ccc2nsnc2c1NC(=O)c1sc2ccccc2c1Cl	1.49 µM
CCN(CC)S(=O)(=O)c1ccc(N2CCCCC2)c(NC(=O)C2CSC3(C)CCC(=O)N23)c1 (centres undefined)	inactive
CSc1ccccc1-c1nnc(-c2ccc(Cl)c(Cl)c2)o1	8.81 µM
COc1ccc(NC(=O)c2sc3nc(N4CCCC4)c4c(c3c2N)CC(C)(C)OC4)c(OC)c1	> 40 µM (inactive)
CN(CC(=O)Nc1ccc(Cl)cc1)S(=O)(=O)c1ccc2c(c1)n(C)c(=O)c(=O)n2C	5.44 µM
COc1cc2[nH]c(=S)nc(NCCc3ccc(C)cc3)c2cc1OC	> 40 µM (inactive)
COc1nc(-c2ccc(Cl)cc2)ccc1-c1noc(-c2cccs2)n1	inactive
O=C(COc1ncnc2ccc(Br)cc12)NCc1ccc2c(c1)OCO2	1.94 µM
Cc1nn(C)c(C)c1NC(=O)CSc1nc(-c2ccccc2Cl)nc2c1cnn2-c1ccccc1	0.879 µM
O=C(CSc1nnc(-c2cccs2)n1-c1cccc(Cl)c1)c1cccc2c1OCCO2	2.25 µM
CCOC(=O)N1CCN(c2ncnc3c2oc2nc(C(C)C)c4c(c23)CCC4)CC1	5.3 µM
CCOc1ccc(/C(CC)=N/NC(=O)C2(C)CC2(Br)Br)cc1 (centres undefined)	7.81 µM
COc1ccc(-c2cc(-c3cccnc3)c(C#N)c(N)n2)cc1	4.4 µM
CCOC(=O)c1c(-c2ccccc2)csc1NC(=O)/C(C#N)=C/c1ccc(O)c(OC)c1	7.23 µM
CN1C(=O)c2cc(NS(=O)(=O)c3ccc(F)cc3)ccc2OC[C@H]2O[C@@H](CC(=O)NCC(F)(F)F)CC[C@@H]21	1.62 µM
COc1ccc(C(=O)Nc2ccccc2C(=O)Nc2ccccc2)cc1	6.74 µM
Cc1nn(-c2ccc(Cl)cc2)c2sc(C(=O)c3c(N)n(C)c(=O)n(C)c3=O)cc12	8.34 µM
Cc1cc(C(C)c2ccccc2)c(O)c(CN2CCOCC2)c1C (centres undefined)	inactive
COc1cccc(C(=O)Nc2ccc(-c3nc4ccccc4o3)c(O)c2)c1	> 40 µM (inactive)
CC(=O)c1sc(NC(=O)c2oc3ccc(F)cc3c2C)nc1C	8.25 µM
COc1ccc(Cn2ccc3ccc(-c4ccc5ccn(C(=O)c6cccc(OC)c6)c5c4)cc32)cc1	> 40 µM (inactive)
COc1ccccc1NC(=O)c1sc2ncn(Cc3cccc(C)c3)c(=O)c2c1C	0.38 µM

SMILES	IC50
CCOC(Cn1c(SCc2cc(C(C)=O)ccc2OC)nc2ccccc2c1=O)OCC	9.39 µM
Cc1cc(=O)oc2cc(OCC3CC(c4ccc(Cl)cc4)=NO3)ccc12 (centres undefined)	8.95 µM
O=C(CSc1nc2ccccc2c(=O)n1-c1ccc(F)cc1)Nc1cc(S(=O)(=O)N2CCOCC2)ccc1Cl	> 40 µM (inactive)
Cc1ccc(S(=O)(=O)c2c[nH]c3ccc(Cl)cc3c2=O)cc1	> 40 µM (inactive)
CCOC(=O)C1CCCN(c2ccc([N+](=O)[O-])c3nonc23)C1 (centres undefined)	> 40 µM (inactive)
Cc1c(C2N3CC4(C)CN2CC(C)(C3)C4=O)c2ccccc2n1C (centres undefined)	inactive
CC(NC(=O)c1ccc(-c2cc(C(F)(F)F)ccc2Cl)o1)c1ccccc1 (centres undefined)	> 40 µM (inactive)
O=S(=O)([N-]c1nc2ccccc2nc1-n1cc[n+](Cc2ccccc2)c1)c1ccc(Br)cc1	1.06 µM
O=C(N=c1ccn(-c2nc3ccccc3nc2NS(=O)(=O)c2ccc(Cl)cc2)cc1)c1cccs1	> 40 µM (inactive)
CN1CCS/C1=C/C=C1\SC(=S)N(CC(=O)O)C1=O	1.12 µM
COC(=O)c1ccc(N/C=C\C(=O)c2ccc3c(c2)OCO3)cc1	7.08 µM
N#Cc1ccccc1Sc1ccccc1C(=O)OCC(=O)NC1CCCCC1	inactive
CC1CC1C(=O)Nc1nc(-c2cccs2)c(-c2cccs2)s1 (centres undefined)	5.22 µM
CCC(C)(C)c1ccc(OCCCC[n+]2ccc(C)cc2)c(C(C)(C)CC)c1	> 40 µM (inactive)
C=CCOc1ccc(/C(O)=C2\C(=O)C(=O)N(CCN(C)C)C2c2cccs2)cc1 (centres undefined)	7.38 µM
COCCN1C(=O)/C(=C/c2ccc(N3CCCC3)cc2C)SC1=S	6.19 µM
COc1ccc(-c2ccc(-c3noc(-c4ccccc4F)n3)c(OC)n2)cc1	1.33 µM
COc1ccc(-c2nc(-c3cccs3)c(-c3cccs3)[nH]2)cc1OC	5.77 µM
CC(=O)c1ccc(N2CCN(c3ccc4cc(S(=O)(=O)N5CCC(C)CC5)ccc4n3)CC2)cc1	8.62 µM
COC(=O)c1ccc(Cn2ccc3ccc(-c4ccc5ccn(C(=O)C6CCCCC6)c5c4)cc32)cc1	6.33 µM
O=C(COC(=O)c1ccccc1SCC(=O)NC1CCCCC1)NC1CCCCC1	4.78 µM
Nc1ccc2cc3ccc(N)cc3nc2c1	> 40 µM (inactive)
O=C(CSc1nnc(-c2cccs2)o1)c1ccc2c(c1)OCO2	inactive
COc1ccc(NC(=O)CSc2nc(-c3ccc(C)cc3)cc(C(F)(F)F)c2C#N)cc1	0.675 µM
COc1cc(C(=O)Nc2cccc(-c3nc4cc(C)ccc4o3)c2)cc(OC)c1OC	4.32 µM
CCOc1ccc2nc(SCC(=O)N3c4ccccc4Sc4ccccc43)c(C#N)cc2c1	6.88 µM

SMILES	IC50
C=CCSc1nc(N)c(C#N)c(-c2ccccc2)c1C#N	inactive
CCc1cccc(NC(=O)c2ccc(Cn3c(=O)[nH]c4ccsc4c3=O)cc2)c1	inactive
COc1ccc(C(=O)Nc2ccc(C(F)(F)F)n(C)c2=O)cc1	> 40 µM (inactive)
COC(=O)c1ccc2nc(Nc3nc4c(F)cc(F)cc4s3)sc2c1	2.14 µM
Cc1cccc(Nc2nn3c(=O)c4ccccc4nc3s2)c1	4.11 µM
CC(C)(C)C(=O)Nc1cc(S(=O)(=O)N2CCCCC2)ccc1N1CCCCC1	> 40 µM (inactive)
CC(C)(C)c1nc(SCC(=O)Nc2ccc3c(c2)OCCO3)c2ccccc2n1	0.88 µM
COc1ccc2c(c1)c(=O)oc1cc(OCC(=O)NC3CC3)ccc12	6.09 µM
CCN(CC)C(=O)CSc1nc2cc3c(cc2c(=O)n1Cc1ccc(OC)cc1)OCO3	> 40 µM (inactive)
CC1=NN(c2ccccc2)C(=O)/C1=C\C=C1\N(C)c2ccccc2C1(C)C	inactive
O=[N+]([O-])c1ccc(N2CCCC2)c2ccncc12	> 40 µM (inactive)
Fc1ccc2nc(Nc3nc4cc5c(cc4s3)OCCO5)sc2c1	6.87 µM
Cc1cc(-c2ccccc2)nc2oc3c(c12)NC(=O)CN(c1ccccc1)C3=O	0.378 µM
CCc1nc(SCC(=O)NCc2ccco2)c2c3c(sc2n1)CCCC3	inactive
COc1ccc2nc(SCC(=O)Nc3ccc(S(=O)(=O)N4CCCC4)cc3)c(C#N)cc2c1	inactive
CC(=O)c1ccc(NC(=O)COC(=O)c2ccccc2Sc2ccccc2C#N)cc1	> 40 µM (inactive)
Cc1cc(C)c2nc(SCC(=O)Nc3ccccc3N3CCOCC3)c(C#N)cc2c1	6.99 µM
CCOC(=O)c1sc(NC(=S)NC(=O)c2ccc(OC)cc2)nc1C	2.11 µM
COC(=O)c1sc2nc3c(cc2c1N)C(=O)CC(C)(C)C3	inactive
COc1cc(OC)cc(-c2c(Sc3ccccc3)c3cc(-c4ccc(SC)cc4)ccc3n2C)c1	5.97 µM
Cc1nn(C)c(C)c1NC(=O)CSc1nc(-c2ccccc2F)nc2c1cnn2-c1ccccc1	3.21 µM
Fc1cccc(CSc2ncnc3c2oc2ccccc23)c1	2.38 µM
CCOC(=O)c1c(-c2ccccc2)csc1NC(=O)c1cc(S(=O)(=O)N2CCOCC2)ccc1C	4.51 µM
Cc1cccc2cc(C#N)c(SCC(=O)N3CC(=O)Nc4ccccc43)nc12	inactive
O=C(OCCN1C(=O)c2cccc3c(N4CCOCC4)ccc(c23)C1=O)c1ccccc1Cl	8.24 µM
COc1ccc(-c2cc(-c3ccccc3)nc(SCC(=O)Nc3nccs3)c2C#N)cc1	> 40 µM (inactive)
